Experiments:
[1] = test system: human Fcγ receptors (FcγRIa, FcγRIIa, FcγRIIb, FcγRIIIa); experiment: FcγR binding ELISA, panel of human Fcγ receptors; conditions: cross-linked antibody
Protocol: FIG. 10 provides graphs and immunocytochemical images corresponding to the experiments described in Example 6.5. […] These findings are consistent with published data for human IgG4 antibodies (Gessner et al., 1998) and IgG1 antibodies carrying the D265A mutation (Shields et al., 2001).
(§1) The binding of test antibodies to a panel of human Fcγ receptors (FcγRs) was measured using enzyme-linked immunosorbent assay (ELISA). Human FcγRs (Genentech, Inc., CA) are fusion proteins containing the extracellular domain of the receptor γ-chain with a Gly/6xHis/glutathione S transferase (GST) polypeptide tag at the C terminus. A monoclonal antibody with human IgG1 framework was used as the positive control (IgG1 control) in this experiment. Plates were coated with a mouse monoclonal anti GST antibody (Genentech, Inc.) in a 0.05 M sodium carbonate buffer (pH 9.6) overnight at 4° C. After blocking with an assay buffer containing phosphate buffered saline (PBS), 0.5% BSA, and 0.05% Tween-20, the plates were incubated with FcγRs at room temperature for 1 h. Human FcγRs were immobilized to the plate via interaction with the anti-GST coating. […] Diluted samples were applied as monomeric forms for the high affinity receptor (FcγRIa), or multimeric forms for the low affinity receptors (FcγRIIa, FcγRIIb, and FcγRIIIa). The multimeric forms of test antibodies were generated by cross linking F(ab′)2 fragment of goat anti human κ-chain (MP Biomedicals, Solon, Ohio), with test monoclonal antibody at an approximate molar ratio of 3:1. The plates were incubated with FcγRs at room temperature for 2 h. […] The antibodies bound to the FcγRs were detected with horseradish peroxidase (HRP)-conjugated F(ab′)2 fragment of goat anti human F(ab′)2 (Jackson ImmunoResearch Laboratories; West Grove, Pa.). […] The reaction was terminated with 1 M H3PO4, and absorbance at 450 nm with reference at 650 nm was measured on a plate reader (Molecular Devices, Sunnyvale, Calif.). Binding curves were generated by plotting the mean absorbance values from duplicates of sample dilutions against the respective sample […].

[2] = biological target: T1, FcγRIIIa-V158 (Homo sapiens, UniProt P08637, F176V); experiment: FcγR binding ELISA, FcγRIIIa-V158; conditions: cross-linked IgG mAb
T1 construct: fusion proteins containing the extracellular domain of the receptor γ-chain
Protocol: The ability of these different monoclonal antibody backbones to internalize Aβ1-42 oligomers into microglia was then compared using confocal imaging on Aβ1-42 oligomer treated primary cortical microglia. […] To verify that microglia are indeed the cells taking up Aβ1-42 complexed to monoclonal antibodies, the study was repeated using HiLyte Fluor-488 tagged Aβ1-42 and co-stained for the microglial marker Iba1.
as §1, with “FcγRIIIa).” for “FcγRIIIa). The multimeric forms of test antibodies were generated by cross linking F(ab′)2 fragment of goat anti human κ-chain (MP Biomedicals, Solon, Ohio), with test monoclonal antibody at an approximate molar ratio of 3:1. The plates were incubated with FcγRs at room temperature for 2 h.”

[3] = test system: p38MAPK; experiment: Phospho-p38MAPK ELISA; format: cell-based, rat; conditions: 10 μM Aβ1-42 oligomers for 30 min, 100 μg/mL antibody
Protocol: FIG. 5 provides graphs and immunocytochemical images corresponding to the experiments described in Example 6.6. […] An IgG1 monoclonal antibody not binding to Aβ was used as control. The activity of p38MAP K was measured by a phospho-specific ELISA as described in Methods (A). The mean (±SEM) of 4 independent experiments is shown. Statistical analysis was done using one-way ANOVA followed by Tukey post-hoc multiple comparison. Activation of p38MAPK with Aβ1-42 oligomers complexed with monoclonal antibody was specific to microglia (B). Cells were treated as described above and then stained for phospho-p38MAP K (green), with Iba1 (red), and with DAPI (blue). […] Pure microglia from CX3CR1-GFP mice were used to verify microglia-specific p38 activity (C). […] A cytotoxicity assay using the MTT readout was performed after 24 h. The mean (±SEM) of 4 experiments is shown. […]
Rat cortical cultures were seeded onto poly-L-lysine coated 6-well cell-culture plates (Costar, Cambridge, Mass., USA) and used at DIV 5. […] Protein concentration was determined by the BCA assay (Pierce, Rockford, Ill., USA). For semi-quantitative measure of p38MAPK activation, a rat phospho-p38MAPK colorimetric ELISA kit was used (Cell Signaling Technology, Beverly, Mass., USA), following the manufacturer's instructions. Plates were read on a spectrophotometric microplate reader (Tecan) at a […]. […]

T1 sequence (P08637 17-208 F176V): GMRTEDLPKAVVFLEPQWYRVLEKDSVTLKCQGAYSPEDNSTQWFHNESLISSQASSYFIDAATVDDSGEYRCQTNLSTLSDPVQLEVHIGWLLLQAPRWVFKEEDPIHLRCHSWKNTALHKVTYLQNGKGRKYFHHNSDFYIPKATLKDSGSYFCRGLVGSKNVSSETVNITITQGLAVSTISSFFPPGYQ

| Substance | binding to FcγRs [1] | binding to FcγRIIIa-V158, hierarchy [2] | Aβ1-42 oligomer-induced p38MAPK activity [3] |
| --- | --- | --- | --- |
| MABT: humanized anti-Aβ monoclonal antibody of IgG4 isotype, affinity matured and humanized form of mouse mMABT | substantially reduced binding to all the FcγRs | MABT-IgG>MABT>MABT-IgG1-D265A | did not reduce the Aβ1-42 oligomer-induced p38MAPK activity, but rather showed a trend towards higher activity |
| MABT-IgG1: same antigen binding sequences as MABT on human IgG1 wild-type backbone with full FcγR-binding capacity | bound to all FcRγ receptors with activities similar to the positive non-Aβ-binding IgG1 control | MABT-IgG>MABT>MABT-IgG1-D265A | increased the Aβ1-42 oligomer-induced p38MAPK activity even further |

From patent US9221900B2, “Methods for identifying safe and functional humanized antibodies” (AC IMMUNE S.A., priority 2010, dated 2015)
